# Measured values taken from PubChem BioAssay (NCI).
# Values joined by “and” are separate entries in the source; they are usually repeats but may differ in a detail not shown here. Equal values may be shown once.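 Growth conditions: 96-well plates. Treatment: test compound, 48 hours, 5 concentrations. Analysis: linear interpolation between bracketing concentrations; unreached endpoints set to highest concentration. GI50: concentration for 50% inhibition of growth. Definition used: TGI = concentration required for complete inhibition of growth.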
# Experiments:
# Test in all cases: NCI tumour cell line growth inhibition, 48 h
# A549 NSCLC = test system: A549 NSCLC
# HT29 colon = test system: HT29 colon
# NCI-H226 lung = test system: NCI-H226 lung
# RXF 393 renal = test system: RXF 393 renal
# MDA-MB-231 breast = test system: MDA-MB-231 breast
# NCI-H522 lung = test system: NCI-H522 lung
# TK-10 renal = test system: TK-10 renal
# ACHN renal = test system: ACHN renal
# HCC-2998 colon = test system: HCC-2998 colon
# U251 CNS = test system: U251 CNS
SMILES,GI50 (A549 NSCLC),TGI (A549 NSCLC),GI50 (HT29 colon),TGI (HT29 colon),GI50 (NCI-H226 lung),TGI (NCI-H226 lung),GI50 (RXF 393 renal),TGI (RXF 393 renal),GI50 (MDA-MB-231 breast),TGI (MDA-MB-231 breast),GI50 (NCI-H522 lung),TGI (NCI-H522 lung),GI50 (TK-10 renal),TGI (TK-10 renal),GI50 (ACHN renal),TGI (ACHN renal),GI50 (HCC-2998 colon),TGI (HCC-2998 colon),GI50 (U251 CNS),TGI (U251 CNS)
CN(CC(=O)Nc1nc2ccccc2[nH]1)S(=O)(=O)c1ccc(Cl)cc1,> 100 µM,> 100 µM,> 100 µM,> 100 µM,> 100 µM,> 100 µM,13.4 µM,55.6 µM,> 100 µM,> 100 µM,> 100 µM,> 100 µM,> 100 µM,> 100 µM,> 100 µM,> 100 µM,> 100 µM,> 100 µM,> 100 µM,> 100 µM
OCCNc1nc(Nc2ccc(Cl)c(Cl)c2)nc2ccccc12,4.2 µM,18 µM,3.39 µM,12.1 µM,12.9 µM,34.2 µM,4.45 µM,18.4 µM,1.97 µM,5.4 µM,10 µM,24.5 µM,14.3 µM,27.9 µM,4.8 µM,18.3 µM,2.52 µM,6.85 µM,3.7 µM,15.5 µM
CC([C@H]1CCC2C3CCC4C[C@@H](N)CC[C@]4(C)C3CC[C@@]21C)N(C)C (some centres undefined),8.45 µM,24.7 µM,1.29 µM,5.59 µM,12.4 µM,> 45.9 µM,4.55 µM,14.9 µM,5.72 µM,16.5 µM,7.25 µM,21.3 µM,12 µM,28.3 µM,8.99 µM,21.6 µM,12.8 µM,26.3 µM,3.61 µM,15.6 µM
Cc1ccc(NC(=O)CSc2nnc3n(Cc4ccccc4)c(=O)c4c(C)c(C(N)=O)sc4n23)cc1,> 100 µM,> 100 µM,> 100 µM,> 100 µM,27.2 µM,> 100 µM,6.88 µM,39 µM,3.44 µM,58.8 µM,3.85 µM,> 100 µM,13.7 µM,34 µM,19.9 µM,51 µM,> 100 µM,> 100 µM,5.17 µM,52.9 µM
O=C1OC(=O)C2CCCC3CCCC1C32 (centres undefined),,> 100 µM,,> 100 µM,,> 100 µM,,> 100 µM,,> 100 µM,,> 100 µM,,> 100 µM,,> 100 µM,,> 100 µM,,> 100 µM
CN1CCN(c2ccc(NC(=O)c3cncnc3Nc3ccc(OCc4ccccn4)c(Cl)c3)cc2)CC1,2.22 µM,7.71 µM,0.948 µM,4.49 µM,5.42 µM,13 µM,1.93 µM,6.71 µM,2 µM,6.56 µM,4.48 µM,10.4 µM,6.78 µM,15.3 µM,3.77 µM,7.87 µM,4.22 µM,9.15 µM,2.64 µM,8.53 µM
CCC(=O)Nc1ccc(C)c(-c2ccc(C(=O)NCC3CC3)cc2)c1,> 25 µM,> 25 µM,> 25 µM,> 25 µM,> 25 µM,> 25 µM,> 25 µM,> 25 µM,> 25 µM,> 25 µM,> 25 µM,> 25 µM,> 25 µM,> 25 µM,> 25 µM,> 25 µM,> 25 µM,> 25 µM,> 25 µM,> 25 µM
C=C(CO)[C@@H]1CC[C@]2(COC3CCCCO3)CC[C@]3(C)[C@H](CC[C@@H]4[C@@]5(C)C=C(C=O)C(=O)C(C)(C)[C@@H]5CC[C@]43C)[C@@H]12 (some centres undefined),0.495 µM,1.87 µM,0.327 µM,1.1 µM,0.538 µM,1.47 µM,0.172 µM,0.334 µM,0.214 µM,0.565 µM,0.205 µM,0.487 µM,0.257 µM,0.688 µM,0.21 µM,0.488 µM,0.286 µM,0.838 µM,0.209 µM,0.546 µM
Clc1ccccc1CNc1c2ccccc2nc2ccccc12,2.21 µM,10.7 µM,1.67 µM,9.02 µM,2.22 µM,10.1 µM,1.29 µM,4.44 µM,2.39 µM,10.2 µM,5.05 µM,21.3 µM,3.98 µM,11 µM,1.76 µM,6.89 µM,1.5 µM,5.57 µM,2.36 µM,9.7 µM
CC(CN(C)C)Oc1ccccc1NC1=C(Cl)C(=O)C(Nc2ccccc2OC(C)CN(C)C)=C(Cl)C1=O (centres undefined),1.7 µM,3.24 µM,0.179 µM,0.423 µM,1.41 µM,2.91 µM,0.663 µM,2.03 µM,0.509 µM,1.2 µM,0.157 µM,0.337 µM,0.479 µM,0.974 µM,0.174 µM,0.312 µM,1.29 µM,2.91 µM,1.33 µM,2.73 µM
CCCCCCCCCCCCCCCCCCOCC(CCP(=O)(CP(=O)(O)O)Oc1ccccc1)OCCCCCCCCCCCCCCCCCC (centres undefined),,> 100 µM,,> 100 µM,,> 100 µM,,> 100 µM,,> 100 µM,,> 100 µM,,> 100 µM,,> 100 µM,,> 100 µM,,> 100 µM
C/C(=C\c1cc(C(F)(F)F)n(-c2ccc(N)cc2)n1)[C@@H]1C[C@@H]2O[C@]2(C)CCC[C@H](C)[C@H](O)[C@@H](C)C(=O)C(C)(C)[C@@H](O)CC(=O)O1,0.0489 µM,> 11.1 µM,0.00621 µM,0.339 µM,0.956 µM,> 11.1 µM,0.032 µM,0.379 µM,0.137 µM,> 11.1 µM,0.0233 µM,0.0839 µM,0.0578 µM,7.95 µM,0.0822 µM,> 11.1 µM,0.0244 µM,1.39 µM,0.0477 µM,> 11.1 µM
C=C1C(=O)O[C@H]2[C@H]1CC/C(COC(=O)C(C)c1ccc(CC(C)C)cc1)=C\CC[C@@]1(C)O[C@@H]21 (some centres undefined),1.8 µM,3.65 µM,1.11 µM,2.59 µM,1.64 µM,3.52 µM,1.38 µM,2.75 µM,1.38 µM,2.73 µM,1.71 µM,3.4 µM,1.74 µM,3.19 µM,1.29 µM,2.56 µM,1.95 µM,3.74 µM,1.49 µM,2.89 µM
Oc1ccc(C2c3ccccc3Oc3ccccc32)c2cccnc12,1.79 µM,> 100 µM,1.1 µM,> 100 µM,1.23 µM,7.92 µM,1.68 µM,7.1 µM,4.36 µM,> 100 µM,2.57 µM,> 100 µM,1.09 µM,> 100 µM,0.845 µM,9.58 µM,1.89 µM,> 100 µM,0.845 µM,> 100 µM
CO/N=C(\COc1ccc2oc(-c3ccccc3)cc(=O)c2c1)c1ccc(OC)cc1,24.4 µM,73 µM,19.7 µM,48.6 µM,50.1 µM,> 100 µM,29 µM,97.5 µM,22 µM,45.2 µM,17.8 µM,37.4 µM,41.4 µM,> 100 µM,23.4 µM,51.9 µM,21.4 µM,48.6 µM,22.3 µM,53.6 µM
Cc1ccc(NS(=O)(=O)c2cccc(C#N)c2)c2[nH]cc(C#N)c12,17.9 µM and 12.7 µM,> 100 µM,33.5 µM and 12.5 µM,> 100 µM,22.5 µM and 25.5 µM,> 96.4 µM,17.6 µM and 1.99 µM,74.3 µM and 68.1 µM,13.6 µM and 22 µM,> 85 µM,,59.9 µM and 23.2 µM,24.6 µM and 22.4 µM,> 92.5 µM,12.6 µM and 16.3 µM,> 96.7 µM and 98.3 µM,25.1 µM,> 100 µM,17.5 µM and 15.2 µM,> 100 µM
O=C1/C(=C/c2ccc(Cl)cc2)CCC/C1=C\c1ccc(Cl)cc1,3.63 µM,> 100 µM,2.7 µM,6.37 µM,5.18 µM,> 100 µM,1.95 µM,3.66 µM,9.83 µM,> 100 µM,2.78 µM,8.52 µM,6.81 µM,> 100 µM,6.83 µM,> 100 µM,1.75 µM,3.19 µM,2.66 µM,7.88 µM
